Reference: US9079876B2, “Imidazole derivatives and preparation method and use thereof” (Beijing Orbiepharm Co., Ltd., priority 2010, dated 2015)

How the values were obtained:
[1] = test system: mice forced swimming immobility time; assay: Forced swimming test in mice (anti-depression model); type: in vivo, Male Kunming mice
Protocol: In Vivo Study: The Forced Swimming Test in Mice (Evaluation on Anti-Depression Model)
Male Kunming mice, approximately 20 g, were randomized into six groups, i.e. normal group, positive drug group (fluoxetine 20 mg/kg), group A (5 mg/kg Compound 1), group B (10 mg/kg Compound 1), group C (20 mg/kg Compound 1), and group D (40 mg/kg Compound 1).
Single Dose Test: Mice were normally fed for 1 day and allowed to adapt to the environment. Then the mice were fasted (except water) for 16 hours, and were intragastrically administrated with a single dose of the test drug, and the normal group was intragastrically administrated with an equivalent amount of distilled water. 40 min after administration, the mice were placed in forced swimming test device (swimming environment: pool diameter 12.5 cm cylinder, water temperature 25° C. and water depth 10 cm). Mice swam for six minutes, and the immobility time (i.e., the time during which the limbs were immobile, or only the feet were thrashing or paddling) was recorded with an animal behavioral record system, for the latter 4 min within the 6 min recording period, and was used for statistical analysis.
(§1) Study with Three-Day Consecutive Dosing: Mice were normally fed for 1 day and allowed to adapt to the environment. Then the mice were intragastrically administrated with the test drug consecutively for three days (once per day). The normal group was intragastrically administrated equivalent amount of distilled water. Mice were fasted (except water) for 16 hours before the last dosing. 40 min after the last dosing, the mice were placed in forced swimming test device (swimming environment: pool diameter 12.5 cm cylinder, water temperature 25° C. and water depth 10 cm). Mice swam for six minutes, and the immobility time (i.e., the time during which the limbs were immobile, or only the feet were thrashing or paddling) was recorded with an animal behavioral record system, for the latter 4 min within the 6 min recording period, and was used for statistical analysis.
as §1, with “Seven-Day” for “Three-Day”, “seven” for “three”

[2] = biological target: T1, cyclooxygenase-2 (COX-2 enzyme) (Homo sapiens, UniProt P35354); assay: Human whole blood in vitro activity assay, COX-2 (LPS-induced PGE2 by EIA); type: cell-based
T1 construct: from tissue; host or cells: heparinised human whole blood from healthy volunteers, stimulated with LPS
T1 sequence (P35354 18-604): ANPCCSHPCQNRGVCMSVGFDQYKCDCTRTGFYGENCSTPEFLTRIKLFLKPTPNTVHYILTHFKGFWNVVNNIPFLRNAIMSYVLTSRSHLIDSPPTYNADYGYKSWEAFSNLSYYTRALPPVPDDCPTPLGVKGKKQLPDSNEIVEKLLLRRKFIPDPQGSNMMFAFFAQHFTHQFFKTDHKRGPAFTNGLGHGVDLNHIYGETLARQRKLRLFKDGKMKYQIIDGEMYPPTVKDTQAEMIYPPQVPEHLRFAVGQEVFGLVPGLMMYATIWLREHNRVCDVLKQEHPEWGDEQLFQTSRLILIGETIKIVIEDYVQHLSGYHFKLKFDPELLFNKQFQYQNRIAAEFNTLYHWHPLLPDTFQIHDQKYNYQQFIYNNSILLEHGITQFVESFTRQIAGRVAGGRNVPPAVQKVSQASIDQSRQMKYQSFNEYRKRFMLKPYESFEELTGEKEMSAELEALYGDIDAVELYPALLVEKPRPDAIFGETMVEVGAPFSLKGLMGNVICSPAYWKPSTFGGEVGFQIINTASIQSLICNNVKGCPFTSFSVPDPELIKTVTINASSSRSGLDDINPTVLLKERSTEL
Protocol: Human whole blood in vitro activity study: inhibition of activity of cyclooxygenase-1 (COX-1 enzyme) and cyclooxygenase-2 (COX-2 enzyme) in human blood. […] The blood samples were divided into two parts: one was used for detecting COX-1 enzyme activity, and the other was used for detecting COX-2 enzyme activity. The compounds were dissolved in DMSO, and were prepared in advance into 2 μL solutions in respective concentrations of 500, 50, 5, 0.5, 0.05, 0.005, 0.0005 μg/mL. 200 μL whole blood without heparin was added in the tubes containing the compounds, and then incubated at 37° C. for 1 hour. The activity of COX-1 enzyme was detected by determining the amount of thromboxane B2 (TXB2) synthesized by platelet using an EIA kit. Samples tested without the compounds were negative controls. For COX-2, 200 μL whole blood with heparin was added in the tubes containing the compounds and in the tubes containing 10 μg/mL LPS. LPS control and blank control with solvent only were used respectively for determining the maximum value and the background value of the PGE2 produced therefrom. The samples were incubated at 37° C. for 24 hours, and then centrifuged to collect serum/plasma, which was stored at −80° C. for detection by an EIA kit. The EIA kit of Cayman Company was used, the amounts of TXB2 and PGE2 were determined in accordance to the manufacturer's instructions, and the activities of COX-1 and COX-2 were tested respectively.

- IC50COX-1/IC50COX-2 [2]: 44.0
- IC50 ([2]; LPS, PGE2, read-out: IC50 (μg/mL) COX-2 (converted)): 0.899 µM
Compound: CS(=O)(=O)c1ccc(-n2cnc(Cl)c2-c2ccccc2)nc1 [Compound 1, 2-(4-chloro-5-phenyl-1H-imidazol-1-yl)-5-(methylsulfonyl)pyridine]
- forced swimming Immobility time ([1]; 3 days consecutive administration, 5 mg/kg intragastric, 5 mg/kg): tendency of reduction in forced swimming immobility time
- forced swimming Immobility time ([1]; 3 days consecutive administration, 5 mg/kg intragastric, 5 mg/kg, in s (unit assumed)): 119.73 ± 24.55
- forced swimming Immobility time ([1]; 3 days consecutive administration, 10 mg/kg intragastric, in s (unit assumed)): 91.73 ± 22.08
- forced swimming Immobility time ([1]; 3 days consecutive administration, 20 mg/kg intragastric, in s (unit assumed)): 83.12 ± 32.57
- forced swimming Immobility time ([1]; 3 days consecutive administration, 40 mg/kg intragastric, in s (unit assumed)): 63.32 ± 30.46
- forced swimming Immobility time ([1]; 7 days consecutive administration, 5 mg/kg intragastric, 5 mg/kg): tendency of reduction in forced swimming immobility time
- forced swimming Immobility time ([1]; 7 days consecutive administration, 5 mg/kg intragastric, 5 mg/kg, in s (unit assumed)): 102.72 ± 34.07
- forced swimming Immobility time ([1]; 7 days consecutive administration, 10 mg/kg intragastric, in s (unit assumed)): 86.40 ± 34.65
- forced swimming Immobility time ([1]; 7 days consecutive administration, 20 mg/kg intragastric, in s (unit assumed)): 86.84 ± 30.21
- forced swimming Immobility time ([1]; 7 days consecutive administration, 40 mg/kg intragastric, in s (unit assumed)): 83.84 ± 35.50
- forced swimming Immobility time ([1]; single dose, 5 mg/kg intragastric, 40 min after administration, 5 mg/kg): tendency of reduction in forced swimming immobility time
- forced swimming Immobility time ([1]; single dose, 5 mg/kg intragastric, 40 min after administration, 5 mg/kg, in s (unit assumed)): 102.24 ± 27.33
- forced swimming Immobility time ([1]; single dose, 10 mg/kg intragastric, 40 min after administration, in s (unit assumed)): 92.85 ± 38.81
- forced swimming Immobility time ([1]; single dose, 20 mg/kg intragastric, 40 min after administration, in s (unit assumed)): 87.55 ± 42.50
- forced swimming Immobility time ([1]; single dose, 40 mg/kg intragastric, 40 min after administration, in s (unit assumed)): 90.86 ± 39.53
